The values below come from article PMC3913610, “Antitumor Activity and Induction of TP53-Dependent Apoptosis toward Ovarian Clear Cell Adenocarcinoma by the Dual PI3K/mTOR Inhibitor DS-7423” (PLoS ONE, 2014).

The test system of test [1] is phosphorylation of AKT, S6, FOXO1/3a in OCCA cells. Kind of test: Immunoblotting of PI3K/mTOR signaling in OCCA cells. The format is cell-based. As to conditions: OVISE. From the text: Signals were detected using BioRAD western blotting systems (BioRAD, Hercules, CA) with the detection reagents ECL advance and ECL select (GE Healthcare, Piscataway, NJ).
(In general: Immunoblotting shows a protein as a band on a membrane.)

Another test deals with OCCA cell lines. Kind of test: Apoptosis by annexin-V FITC/PI staining, OCCA panel. The format is cell-based. The settings on record: OCCA cells, even at 2,500 nM. The protocol:
Cells (5×10^5) were cultured in 60-mm plates for 24 h before treatment with either DMSO (control), and 156 nM DS-7423, or 2,500 nM DS-7423 for 48 h. Cells were trypsinized, washed twice with PBS, and then analyzed after double staining with annexin-V fluorescein isothiocyanate (FITC) (Abcam, Cambridge, MA) and PI. The apoptotic cell population was analyzed using flow cytometry. All experiments were performed three times.

A further test relates to OVTOKO cells. The test is described as follows: Proliferation (MTT/WST-8) assay. The class given is cell-based. The settings on record: 72 h. The protocol:
(§1) Assays of the suppression of cell proliferation were performed with the Cell Counting Kit-8 using the tetrazolium salt WST-8 [2-(2-methoxy-4-nitrophenyl)-3-(4-nitrophenyl)-5-(2,4-disulfophenyl)-2H-tetrazolium, monosodium salt] (Dojindo, Tokyo, Japan) for the methyl thiazolyl tetrazolium (MTT) assay. […] Proliferation was quantified by monitoring the changes in the absorbance at 450 nm, which were normalized relative to the absorbance of cell cultures treated with DMSO alone.
For orientation: Tetrazolium assays rely on reduction of a dye to a coloured formazan, in cell work by metabolically active cells.

A further test has as its system RMG-I cells. The test is described as follows: Proliferation (MTT/WST-8) assay. The format is cell-based. The settings on record: Homo sapiens, RMG-1, 72 h. The protocol:
as §1

In a further test the test system is OVMANA cells. Kind of test: Proliferation (MTT/WST-8) assay. The class given is cell-based. As to conditions: 72 h. The protocol:
as §1

For the next test, the system named is SKOV3 cells. The test is described as follows: Proliferation (MTT/WST-8) assay. The settings on record: Homo sapiens, SK-OV-3; SKOV3, 72 h. The format is cell-based. The protocol:
as §1

For another test, the system named is JHOC-7 cells. Kind of test: Proliferation (MTT/WST-8) assay. As to conditions: JHOC-7, 72 h. The format is cell-based. The protocol:
as §1

The next test deals with recurrent OCCA. Further details: method as in PMID 21243393. As to conditions: six cases, weekly administration, recurrent OCCA patients ref 39; cited from earlier work.

Where only a bound is given, the exact number is not on record here.

As usually defined, the IC50 is the concentration that gives 50% inhibition. A low value points to inhibition by little substance. With `CO[C@H]1C[C@@H]2CC[C@@H](C)[C@@](O)(O2)C(=O)C(=O)N2CCCC[C@H]2C(=O)O[C@H]([C@H](C)C[C@@H]2CC[C@@H](O)[C@H](OC)C2)CC(=O)[C@H](C)/C=C(\C)[C@@H](O)[C@@H](OC)C(=O)[C@H](C)C[C@H](C)/C=C/C=C/C=C/1C` [rapamycin], the “levels of p-FOXO3a and p-FOXO1” value in test [1] (2,500 nM) is listed as “increased”. In test [1] (any dose (0 to 2,500 nM)), the “suppression of p-Akt” value is recorded as “did not suppress”. The compound also displayed an apoptotic cell death with OCCA cell lines of at most 5%. The IC50 with OVTOKO cells, in the test on RMG-I cells, in the test on OVMANA cells, with SKOV3 cells and in the test with JHOC-7 cells was over 2560 nM in each case.
Take `CO[C@H]1C[C@@H]2CC[C@@H](C)[C@@](O)(O2)C(=O)C(=O)N2CCCC[C@H]2C(=O)O[C@H]([C@H](C)C[C@@H]2CC[C@@H](OC(=O)C(C)(CO)CO)[C@H](OC)C2)CC(=O)[C@H](C)/C=C(\C)[C@@H](O)[C@@H](OC)C(=O)[C@H](C)C[C@H](C)/C=C/C=C/C=C/1C` [temsirolimus]: in the test with recurrent OCCA, the clinical response entry was “partial response in one patient and stable disease in another patient”.
